Measured values taken from ChEMBL document CHEMBL1201862, “PubChem BioAssay data set” (2004).
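Where inhibition never reached the appropriate level, the endpoint shown equals the highest concentration tested. Otherwise, values were interpolated linearly from a five-concentration, 48-hour dose response in 96-well plates. GI50 = concentration required for 50% inhibition of growth.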 Calls of active or inactive are those of the source. Rule as the data show it: active = GI50 up to about 1.1 µM and inactive = higher.

Columns and labels:
Assay in all cases: growth of human tumour cells (NCI), 48 h
CCRF-CEM = tested on: CCRF-CEM
COLO 205 = tested on: COLO 205
HCT-116 = tested on: HCT-116
HT-29 = tested on: HT-29
IGROV-1 = tested on: IGROV-1
KM12 = tested on: KM12
MOLT-4 = tested on: MOLT-4
NCI-H23 = tested on: NCI-H23
NCI-H522 = tested on: NCI-H522
OVCAR-3 = tested on: OVCAR-3
RXF 393 = tested on: RXF 393
SF-295 = tested on: SF-295
SF-539 = tested on: SF-539
SK-MEL-2 = tested on: SK-MEL-2
SNB-19 = tested on: SNB-19
SNB-75 = tested on: SNB-75
UACC-62 = tested on: UACC-62
UO-31 = tested on: UO-31
HOP-62 = tested on: HOP-62
A498 = tested on: A498

Measured: GI50

CCOC(=O)/C(=N/Nc1ccc(Cl)cc1)N1C(=S)N(C)N=C(C)C=C1S
inactive: CCRF-CEM > 100 µM | COLO 205 > 100 µM | HCT-116 > 100 µM | HT-29 > 100 µM | IGROV-1 > 100 µM | KM12 > 100 µM | MOLT-4 > 100 µM | NCI-H23 39 µM | NCI-H522 22.1 µM | OVCAR-3 81.3 µM | RXF 393 11.7 µM | SF-295 20.5 µM | SF-539 57.1 µM | SK-MEL-2 57.7 µM | SNB-19 34.6 µM | SNB-75 24.2 µM | UACC-62 34.6 µM | UO-31 > 100 µM

CN(C)CCCCN1CCc2c(n(C)c3ccccc23)C1=O
inactive: CCRF-CEM 63.2 µM | COLO 205 18.1 µM | HCT-116 22.4 µM | HOP-62 38.7 µM | HT-29 18.7 µM | IGROV-1 57.9 µM | KM12 44.4 µM | MOLT-4 50.6 µM | NCI-H23 54.2 µM | NCI-H522 33.3 µM | OVCAR-3 > 81.3 µM | RXF 393 42.1 µM | SF-295 25.9 µM | SK-MEL-2 20 µM | SNB-19 > 74 µM | SNB-75 22.3 µM | UACC-62 17.3 µM | UO-31 30.9 µM

COc1ccc2c(c1)/C(=C/CCN(C)C)c1ccccc1S2
inactive: A498 > 100 µM | CCRF-CEM 54.6 µM | COLO 205 18.8 µM | HCT-116 55.8 µM | HT-29 76.6 µM | KM12 > 100 µM | MOLT-4 67.1 µM | NCI-H23 > 100 µM | OVCAR-3 > 100 µM | RXF 393 35.6 µM | SF-295 > 100 µM | SNB-19 > 100 µM | SNB-75 27.5 µM | UO-31 27 µM

COC1=CC(=O)c2ccccc2C1(C)C1=NC(C)(C)CO1 (stereo not drawn)
inactive: CCRF-CEM > 100 µM | COLO 205 > 100 µM | HCT-116 > 100 µM | HOP-62 > 100 µM | HT-29 > 100 µM | IGROV-1 > 100 µM | KM12 > 100 µM | MOLT-4 > 100 µM | NCI-H23 > 100 µM | NCI-H522 > 100 µM | OVCAR-3 > 100 µM | RXF 393 > 100 µM | SF-295 > 100 µM | SF-539 > 100 µM | SK-MEL-2 > 100 µM | SNB-19 > 100 µM | SNB-75 > 100 µM | UACC-62 > 100 µM | UO-31 > 100 µM

COc1ccc2cc(/C=N/NC(=O)Nc3ccccc3)ccc2c1
inactive: A498 > 100 µM | CCRF-CEM > 100 µM | COLO 205 > 100 µM | HCT-116 > 100 µM | HOP-62 > 100 µM | HT-29 > 100 µM | IGROV-1 > 100 µM | KM12 > 100 µM | MOLT-4 > 100 µM | NCI-H23 > 100 µM | OVCAR-3 > 100 µM | RXF 393 > 10 µM | SF-295 > 100 µM | SK-MEL-2 > 100 µM | SNB-19 > 100 µM | SNB-75 > 100 µM | UACC-62 > 100 µM | UO-31 > 100 µM

CS(=O)(=O)OCC1=C(COS(C)(=O)=O)C(=O)c2c(O)ccc(O)c2C1=O
inactive: A498 > 100 µM | CCRF-CEM > 100 µM | COLO 205 > 100 µM | HCT-116 > 100 µM | HOP-62 > 100 µM | HT-29 > 100 µM | IGROV-1 > 100 µM | KM12 > 100 µM | MOLT-4 > 100 µM | NCI-H23 > 100 µM | NCI-H522 > 100 µM | OVCAR-3 > 100 µM | SF-295 > 100 µM | SF-539 > 100 µM | SK-MEL-2 > 100 µM | SNB-75 > 100 µM | UACC-62 > 100 µM | UO-31 > 100 µM

COc1cc(Nc2nc3ccc(C(F)(F)F)cc3nc2C(=O)O)cc(OC)c1OC
inactive: CCRF-CEM 41.6 µM | COLO 205 19.8 µM | HCT-116 18.5 µM | HOP-62 18.2 µM | HT-29 27 µM | IGROV-1 25.6 µM | KM12 23.6 µM | MOLT-4 29.2 µM | NCI-H23 27.8 µM | NCI-H522 21.4 µM | OVCAR-3 32.1 µM | RXF 393 25.2 µM | SF-295 27.1 µM | SF-539 31.4 µM | SK-MEL-2 21.8 µM | SNB-19 29.9 µM | SNB-75 46 µM | UACC-62 18.6 µM | UO-31 19.7 µM

CC1(C)CCc2cc3c(cc2O1)OC(C)(C)CC3=O
inactive: CCRF-CEM 76.6 µM | COLO 205 > 100 µM | HCT-116 71.1 µM | HOP-62 23.2 µM | HT-29 35.6 µM | IGROV-1 > 100 µM | KM12 > 100 µM | MOLT-4 46.8 µM | NCI-H23 91.6 µM | NCI-H522 2.39 µM | OVCAR-3 27.5 µM | SF-295 > 100 µM | SF-539 > 100 µM | SK-MEL-2 > 100 µM | SNB-75 70.8 µM | UACC-62 > 100 µM | UO-31 40.3 µM

CCCCCCCNC(P(=O)(O)O)P(=O)(O)O
inactive: A498 > 100 µM | CCRF-CEM > 100 µM | COLO 205 > 100 µM | HCT-116 > 100 µM | HOP-62 > 100 µM | HT-29 54.7 µM | IGROV-1 > 100 µM | KM12 > 100 µM | MOLT-4 > 100 µM | NCI-H23 > 100 µM | NCI-H522 > 100 µM | OVCAR-3 > 100 µM | SF-295 > 100 µM | SF-539 > 100 µM | SK-MEL-2 > 100 µM | SNB-19 > 100 µM | SNB-75 8.2 µM | UACC-62 > 100 µM | UO-31 > 100 µM

CCCCCC/C(CC(=O)CCC(=O)NCCc1ccccc1)=N\NC(=O)c1ccc2ccccc2c1O
inactive: CCRF-CEM 10.3 µM | COLO 205 54.2 µM | HCT-116 29.9 µM | HOP-62 36.7 µM | HT-29 55.3 µM | IGROV-1 33.7 µM | KM12 35.1 µM | MOLT-4 11.5 µM | NCI-H23 31.6 µM | OVCAR-3 28.8 µM | RXF 393 50.4 µM | SF-295 48 µM | SK-MEL-2 20 µM | SNB-19 59.8 µM | SNB-75 78.5 µM | UACC-62 22 µM | UO-31 35.4 µM

C#Cc1c(C)c(/C=C/C(C)=C\C(=O)OC)n(C)c1C
inactive: A498 81.3 µM | CCRF-CEM 33.8 µM | COLO 205 61.2 µM | HOP-62 71.1 µM | HT-29 28.6 µM | IGROV-1 > 100 µM | KM12 99.1 µM | MOLT-4 7.06 µM | NCI-H23 > 100 µM | NCI-H522 50.7 µM | OVCAR-3 96.2 µM | SF-295 > 100 µM | SF-539 67.5 µM | SNB-19 > 100 µM | UACC-62 70.8 µM | UO-31 63.4 µM
